In PubChem BioAssay (NCI):
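Five concentrations, 48 hours, 96-well plates. GI50: concentration for 50% inhibition of growth. TGI: total growth inhibition.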

What was measured:
Test in all cases: DTP human tumour cell line panel, 48 h
HOP-62 NSCLC = test system: HOP-62 NSCLC
OVCAR-4 ovarian = test system: OVCAR-4 ovarian
SR leukemia = test system: SR leukemia
SNB-75 CNS = test system: SNB-75 CNS
SNB-19 CNS = test system: SNB-19 CNS
MDA-MB-231 breast = test system: MDA-MB-231 breast
HOP-92 NSCLC = test system: HOP-92 NSCLC
TK-10 renal = test system: TK-10 renal
786-0 renal = test system: 786-0 renal
HS 578T breast = test system: HS 578T breast
U251 CNS = test system: U251 CNS
LOX IMVI melanoma = test system: LOX IMVI melanoma
SF-539 CNS = test system: SF-539 CNS
UACC-257 melanoma = test system: UACC-257 melanoma
UO-31 renal = test system: UO-31 renal
A549 NSCLC = test system: A549 NSCLC
RXF 393 renal = test system: RXF 393 renal
SK-MEL-5 melanoma = test system: SK-MEL-5 melanoma
EKVX NSCLC = test system: EKVX NSCLC
SK-OV-3 ovarian = test system: SK-OV-3 ovarian
HCT-15 colon = test system: HCT-15 colon
SF-295 CNS = test system: SF-295 CNS
NCI-H460 lung = test system: NCI-H460 lung
NCI/ADR-RES ovarian = test system: NCI/ADR-RES ovarian
MALME-3M melanoma = test system: MALME-3M melanoma
NCI-H23 lung = test system: NCI-H23 lung
SF-268 CNS = test system: SF-268 CNS
NCI-H226 lung = test system: NCI-H226 lung
HCT-116 colon = test system: HCT-116 colon
ACHN renal = test system: ACHN renal
K-562 leukemia = test system: K-562 leukemia
PC-3 prostate = test system: PC-3 prostate
COLO 205 colon = test system: COLO 205 colon
RPMI-8226 leukemia = test system: RPMI-8226 leukemia
KM12 colon = test system: KM12 colon
DU-145 prostate = test system: DU-145 prostate
BT-549 breast = test system: BT-549 breast
UACC-62 melanoma = test system: UACC-62 melanoma
HCC-2998 colon = test system: HCC-2998 colon
OVCAR-5 ovarian = test system: OVCAR-5 ovarian
SK-MEL-2 melanoma = test system: SK-MEL-2 melanoma
M14 melanoma = test system: M14 melanoma
MDA-MB-435 = test system: MDA-MB-435
SK-MEL-28 melanoma = test system: SK-MEL-28 melanoma
CAKI-1 renal = test system: CAKI-1 renal
MCF7 breast = test system: MCF7 breast
OVCAR-3 ovarian = test system: OVCAR-3 ovarian
OVCAR-8 ovarian = test system: OVCAR-8 ovarian
T-47D breast = test system: T-47D breast
HT29 colon = test system: HT29 colon
A498 renal = test system: A498 renal
MOLT-4 leukemia = test system: MOLT-4 leukemia
SW-620 colon = test system: SW-620 colon

COc1cc(/C=C/C(=O)c2ccc(NC(=O)CSc3nnc(-c4cc(OC)c(OC)c(OC)c4)n3-c3ccccc3)cc2)cc(OC)c1OC
GI50 (HOP-62 NSCLC): 1840 nM
TGI (HOP-62 NSCLC): 7.06 µM
GI50 (OVCAR-4 ovarian): 1800 nM
TGI (OVCAR-4 ovarian): > 100 µM
GI50 (SR leukemia): 316 nM
TGI (SR leukemia): > 100 µM
GI50 (SNB-75 CNS): 429 nM
TGI (SNB-75 CNS): 14.2 µM
GI50 (SNB-19 CNS): 2180 nM
TGI (SNB-19 CNS): > 100 µM
GI50 (MDA-MB-231 breast): 4.09 µM
TGI (MDA-MB-231 breast): > 100 µM
GI50 (HOP-92 NSCLC): 2060 nM
TGI (HOP-92 NSCLC): 9.67 µM
GI50 (TK-10 renal): 9.3 µM
TGI (TK-10 renal): > 100 µM
GI50 (786-0 renal): 1050 nM
TGI (786-0 renal): 4.63 µM
GI50 (HS 578T breast): 20.4 µM
TGI (HS 578T breast): > 100 µM
GI50 (U251 CNS): 527 nM
TGI (U251 CNS): > 100 µM

COC1O[C@H]2[C@H]3[C@@H]1[C@@H](OS(=O)(=O)c1ccc(C)cc1)C(=O)N3C[C@H]2O (some centres not stated)
TGI (LOX IMVI melanoma): > 100 µM
TGI (SF-539 CNS): > 100 µM
TGI (HOP-62 NSCLC): > 100 µM
TGI (UACC-257 melanoma): > 100 µM
TGI (OVCAR-4 ovarian): > 100 µM
TGI (UO-31 renal): > 100 µM
TGI (A549 NSCLC): > 100 µM
TGI (SR leukemia): > 100 µM
TGI (RXF 393 renal): 81.7 µM
TGI (SK-MEL-5 melanoma): > 100 µM
TGI (SNB-19 CNS): > 100 µM
TGI (EKVX NSCLC): > 100 µM
TGI (SK-OV-3 ovarian): > 100 µM
TGI (HCT-15 colon): > 100 µM
TGI (SF-295 CNS): > 100 µM
TGI (NCI-H460 lung): > 100 µM
TGI (MDA-MB-231 breast): > 100 µM
TGI (NCI/ADR-RES ovarian): > 100 µM
TGI (MALME-3M melanoma): > 100 µM
TGI (NCI-H23 lung): > 100 µM
TGI (SF-268 CNS): > 100 µM
TGI (NCI-H226 lung): > 100 µM
TGI (HCT-116 colon): > 100 µM
TGI (ACHN renal): > 100 µM
TGI (K-562 leukemia): > 100 µM
TGI (PC-3 prostate): > 100 µM
TGI (COLO 205 colon): > 100 µM
TGI (RPMI-8226 leukemia): > 100 µM
TGI (KM12 colon): > 100 µM
TGI (DU-145 prostate): > 100 µM
TGI (BT-549 breast): > 100 µM
TGI (UACC-62 melanoma): > 100 µM
TGI (HCC-2998 colon): > 100 µM
TGI (OVCAR-5 ovarian): > 100 µM
TGI (SK-MEL-2 melanoma): > 100 µM
TGI (M14 melanoma): > 100 µM
TGI (TK-10 renal): > 100 µM
TGI (MDA-MB-435): > 100 µM
TGI (SK-MEL-28 melanoma): > 100 µM
TGI (CAKI-1 renal): > 100 µM
TGI (786-0 renal): > 100 µM
TGI (MCF7 breast): > 100 µM
TGI (OVCAR-3 ovarian): > 100 µM
TGI (OVCAR-8 ovarian): > 100 µM
TGI (T-47D breast): > 100 µM
TGI (HT29 colon): > 100 µM
TGI (A498 renal): > 100 µM
TGI (U251 CNS): > 100 µM
TGI (MOLT-4 leukemia): > 100 µM
TGI (SW-620 colon): > 100 µM
